PubChem BioAssay AID588654 (The Scripps Research Institute Molecular Screening Center, 2011)
The source made the active and inactive calls.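 Rule for the calls: active = EGF receptor protein level falling or rising by at least 30% versus DMSO-treated cells; inactive = the rest.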

What follows are compounds tested against Epidermal growth factor receptor (Homo sapiens) (UniProt P00533) (assay: change in total EGFR protein, up or down, late-stage follow-up, counter-screen for KLF5 inhibitor project, HT29 cells, chemiluminescent western blot (AID 588654)). Conditions: 24 h, at 10 µM, stronger effect = higher value.
Epidermal growth factor receptor (Homo sapiens), sequence (P00533 whole entry, looked up): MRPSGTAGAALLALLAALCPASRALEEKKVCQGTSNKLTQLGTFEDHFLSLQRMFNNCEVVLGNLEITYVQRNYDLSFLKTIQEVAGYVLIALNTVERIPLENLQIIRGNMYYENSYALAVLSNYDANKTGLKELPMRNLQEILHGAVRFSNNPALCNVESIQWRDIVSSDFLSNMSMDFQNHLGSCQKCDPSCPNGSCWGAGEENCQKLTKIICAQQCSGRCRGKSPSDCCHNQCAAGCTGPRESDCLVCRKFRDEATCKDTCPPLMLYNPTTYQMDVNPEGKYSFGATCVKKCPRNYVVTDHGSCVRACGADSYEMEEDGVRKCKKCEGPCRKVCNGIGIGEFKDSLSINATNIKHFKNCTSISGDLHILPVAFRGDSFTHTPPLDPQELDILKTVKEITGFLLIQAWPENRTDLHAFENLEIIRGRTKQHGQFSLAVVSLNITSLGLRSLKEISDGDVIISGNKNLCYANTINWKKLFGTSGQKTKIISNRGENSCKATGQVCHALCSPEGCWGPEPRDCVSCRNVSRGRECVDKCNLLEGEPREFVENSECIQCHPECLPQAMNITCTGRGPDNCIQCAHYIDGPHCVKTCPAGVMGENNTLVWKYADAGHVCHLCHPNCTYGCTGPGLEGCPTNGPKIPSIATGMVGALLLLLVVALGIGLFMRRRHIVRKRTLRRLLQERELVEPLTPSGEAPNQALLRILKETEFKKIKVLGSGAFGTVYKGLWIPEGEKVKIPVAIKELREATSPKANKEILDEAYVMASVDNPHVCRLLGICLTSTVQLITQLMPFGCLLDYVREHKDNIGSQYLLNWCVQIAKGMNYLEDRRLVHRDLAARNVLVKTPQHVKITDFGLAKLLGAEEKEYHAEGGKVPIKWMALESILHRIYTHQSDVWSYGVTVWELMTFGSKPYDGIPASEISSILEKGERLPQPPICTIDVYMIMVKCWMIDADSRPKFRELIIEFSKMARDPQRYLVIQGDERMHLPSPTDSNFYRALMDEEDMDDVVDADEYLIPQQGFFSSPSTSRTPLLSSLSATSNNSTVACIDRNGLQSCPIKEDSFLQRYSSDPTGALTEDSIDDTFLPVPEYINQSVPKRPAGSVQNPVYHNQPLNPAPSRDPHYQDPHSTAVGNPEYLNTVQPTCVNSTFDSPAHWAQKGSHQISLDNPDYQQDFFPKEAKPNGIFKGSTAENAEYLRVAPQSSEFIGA

Row | Structure (SMILES) | inhibition
1 | CN(C(=O)CNC(=O)/C=C/c1cccc(Cl)c1)C1CCS(=O)(=O)C1 (stereo not drawn) | -0.393% (inactive)
2 | CN(C(=O)COC(=O)/C=C/c1cccc([N+](=O)[O-])c1)C1CCS(=O)(=O)C1 (stereo not drawn) | 16.4% (inactive)
3 | CN(C(=O)CNC(=O)/C=C/c1cccc(Cl)c1)C1CCS(=O)(=O)CC1 | 7.26% (inactive)
